In US9670197B2, “Small molecule modifiers of the Hec1-Nek2 interaction in G2/M” (The Regents of the University of California, priority 2013, dated 2017):
Where a SMILES comes first, the peptide text is derived from it. The star is where a group is joined. Cbz = O=C(OCc1ccccc1)*

Columns and labels:
HeLa = assay: Cancer cell growth inhibition, HeLa; format: cell-based; settings: Homo sapiens; Table 1, HeLa; read-out: HeLa IC50
Experimental: Cell lines and establishment of stable cell lines. Human breast cancer cell lines MDA-MB-231 and MDA-MB-468, osteosarcoma line U20S, cervical adenocarcinoma line HeLa, and normal skin fibroblast Hs27 were maintained in DMEM medium (Invitrogen, Grand Island, N.Y.) supplemented 10% fetal bovine serum (FBS) and 1% penicillin-streptomycin. The leukemia cell line K562 and glioblastoma cell line T98G were grown in RPMI 1640 supplemented 10% FBS and 1% penicillin-streptomycin. Normal mammary gland epithelial cell line MCF10A was cultured in DMEM/F12 (50:50) plus 5% horse serum, 0.1 μg/mL cholera toxin, 10 μg/mL insulin, 0.5 μg/mL hydrocortisone, and 20 ng/mL epidermal growth factor. To establish MDA-MB-468 cells that stably expressed each individual GFP-Hec1 deletion construct described above, cells were infected with retrovirus expressing GFP-Hec1 WT, GFP-Hec1 W395A and GFP-Hec1 WLK/AAA, and were selected with 2 μg/ml puromycin.

MB468 = assay: Cancer cell growth inhibition, MB468 (MDA-MB-468); format: cell-based; settings: Homo sapiens, Table 1, MB468, read-out: MB468 IC50
cancer cell lines = assay: Cancer cell growth inhibition; format: cell-based
Nek2 = Nek2 protein level in treated HeLa cells, western blot; format: cell-based; settings: co-treatment with INH41 or INH154
Experimental: INH-induced Nek2 degradation; INH-inhibition of Hec1 phosphorylation by Nek2. […] To evaluate whether INH treatment affected cell cycle profile or Nek2 mRNA level, we performed FACS and real-time PCR analysis.
Protein extraction and western blot analysis. The protein extractions and western blot analyses of Examples 4-6 were conducted as follows. Cell extracts were prepared and equal amounts of protein were separated by SDS-PAGE (10% w/v gel) followed by electrophoretic transfer to PVDF membranes (Millipore, Billerica, Mass.). After blocking with 5% w/v powdered non-fat milk, the membrane was incubated with different antibodies for overnight at 4° C. and treated for 1 hr with horseradish peroxidase-conjugated goat anti-mouse IgG and goat anti-rabbit IgG antibodies (GeneTex, Irvine, Calif.). ECL detection of the horseradish peroxidase reaction was performed according to the manufacturer's instructions (Millipore, Billerica, Mass.). Protein signal was measured on a LAS 4000 mini Imaging System (Fujifilm, Valhalla, N.Y.).

Hec1 = assay: Biotin-conjugated INH pull-down of Hec1 and Hec1 mutants; format: binding

SMILES | IC50 (HeLa) [nM] | IC50 (MB468) [nM] | inhibition of cancer cell growth, IC50 (in words) (cancer cell lines) | effect on INH-induced degradation of Nek2 (Nek2) | binding of Hec1 W395A and W395A/L399A/K400A mutants (Hec1)
COc1cc(C)cc(C)c1-c1csc(NC(=O)c2ccncc2)n1 [INH56] | 1800 | 4500 |  |  | 
Cc1cc([N+](=O)[O-])cc(C)c1-c1csc(NC(=O)c2ccncc2)n1 [INH78, N-(4-(2,6-Dimethyl-4-nitrophenyl)thiazol-2-yl)isonicotinamide] | 630 | 1400 | sub-micromolar IC50 |  | 
Cc1cc(N)cc(C)c1-c1csc(NC(=O)c2ccncc2)n1 [INH79, N-(4-(4-amino-2,6-dimethylphenyl)thiazol-2-yl)isonicotinamide] | 2300 | 3200 |  |  | 
Cc1cc(F)cc(C)c1-c1csc(NC(=O)c2ccncc2)n1 [INH80, N-(4-(4-fluoro-2,6-dimethylphenyl)thiazol-2-yl)isonicotinamide] | 2000 | 4400 |  |  | 
COc1cncc(Oc2cc(C)c(-c3csc(NC(=O)c4ccncc4)n3)c(C)c2)n1 [INH81, N-(4-(4-((6-methoxypyrazin-2-yl)oxy)-2,6-dimethylphenyl)thiazol-2-yl)isonicotinamide] | 1400 | 400 | sub-micromolar IC50 |  | 
Cc1cc(NC(=O)C2CC2)cc(C)c1-c1csc(NC(=O)c2ccncc2)n1 [INH136, N-(4-(4-((cyclopropylcarbonyl)amino)-2,6-dimethylphenyl)thiazol-2-yl)isonicotinamide] | 1500 | 3400 |  |  | 
Cc1cc(NC(=O)CCC(=O)O)cc(C)c1-c1csc(NC(=O)c2ccncc2)n1 [INH146, 4-(4-(2-(isonicotinamido)thiazol-4-yl)-3,5-dimethylphenylamino)-4-oxobutanoic acid] | > 5000 | > 10000 |  |  | 
Cc1cc(NCC(=O)O)cc(C)c1-c1csc(NC(=O)c2ccncc2)n1 [INH156, N-(4-(2-(Isonicotinamido)thiazol-4-yl)-3,5-dimethylphenyl)-glycine] | 2400 | 9400 |  |  | 
Cc1cc(N2C(=O)CCC2=O)cc(C)c1-c1csc(NC(=O)c2ccncc2)n1 [INH160, N-(4-(4-(2,5-dioxopyrrolidin-1-yl)-2,6-dimethylphenyl)thiazol-2-yl)isonicotinamide] | 5000 | 3300 |  |  | 
Cc1cc(N2CCOCC2)cc(C)c1-c1csc(NC(=O)c2ccncc2)n1 [INH168] | 200 | 120 | sub-micromolar IC50 |  | 
Cc1cc(C#N)cc(C)c1-c1csc(NC(=O)c2ccncc2)n1 [INH174, N-(4-(4-Cyano-2,6-dimethylphenyl)thiazol-2-yl)isonicotinamide] | 600 | 500 | sub-micromolar IC50 |  | 
Cc1cc(O)cc(C)c1-c1csc(NC(=O)c2ccncc2)n1 [INH182, N-(4-(4-hydroxy-2,6-dimethylphenyl)thiazol-2-yl)isonicotinamide] | 3500 | 2000 |  |  | 
Cc1cc(N2CCN(C)CC2)cc(C)c1-c1csc(NC(=O)c2ccncc2)n1 [INH212, N-(4-(2,6-dimethyl-4-(4-methylpiperazin-1-yl)phenyl)thiazol-2-yl)isonicotinamide] | 2500 | 2400 |  |  | 
CC(C)C[C@@H](C=O)NC(=O)[C@H](CC(C)C)NC(=O)[C@H](CC(C)C)NC(=O)OCc1ccccc1 [MG132, reference compound] (Cbz-Leu-Leu-Leu-aldehyde) |  |  |  | prevented INH-induced degradation of Nek2 | 
Cc1cc(N2CCC(OCCOCCOCCOCCNC(=O)CCCC[C@@H]3SC[C@@H]4NC(=O)N[C@@H]43)CC2)cc(C)c1-c1csc(NC(=O)c2ccncc2)n1 [biotin-INH154, N-(4-(2,6-dimethyl-4-(4-((13-oxo-17-((3aS,4S,6aR)-2-oxohexahydro-1H-thieno [3,4-d]imidazol-4-yl)-3,6,9-trioxa-12-azaheptadecyl)oxy)piperidin-1-yl)phenyl)thiazol-2-yl)isonicotinamide] |  |  |  |  | neither mutant was able to bind
